target: T1, human recombinant P2X7 receptor (Homo sapiens, UniProt Q99572); assay: YO-PRO assay (YO-PRO-1 uptake) in HEK cells stably expressing P2X7; assay type: cell-based; conditions: HEK-293 cells expressing human recombinant P2X7 receptor; ATP 250 μM, 90 minutes; YO-PRO-1 fluorescence (FLIPR tetra); read-out: IC50 (antagonistic activity with respect to the P2X7 receptor)
T1 construct: expressed in transfected cells
T1 sequence (Q99572 1-595): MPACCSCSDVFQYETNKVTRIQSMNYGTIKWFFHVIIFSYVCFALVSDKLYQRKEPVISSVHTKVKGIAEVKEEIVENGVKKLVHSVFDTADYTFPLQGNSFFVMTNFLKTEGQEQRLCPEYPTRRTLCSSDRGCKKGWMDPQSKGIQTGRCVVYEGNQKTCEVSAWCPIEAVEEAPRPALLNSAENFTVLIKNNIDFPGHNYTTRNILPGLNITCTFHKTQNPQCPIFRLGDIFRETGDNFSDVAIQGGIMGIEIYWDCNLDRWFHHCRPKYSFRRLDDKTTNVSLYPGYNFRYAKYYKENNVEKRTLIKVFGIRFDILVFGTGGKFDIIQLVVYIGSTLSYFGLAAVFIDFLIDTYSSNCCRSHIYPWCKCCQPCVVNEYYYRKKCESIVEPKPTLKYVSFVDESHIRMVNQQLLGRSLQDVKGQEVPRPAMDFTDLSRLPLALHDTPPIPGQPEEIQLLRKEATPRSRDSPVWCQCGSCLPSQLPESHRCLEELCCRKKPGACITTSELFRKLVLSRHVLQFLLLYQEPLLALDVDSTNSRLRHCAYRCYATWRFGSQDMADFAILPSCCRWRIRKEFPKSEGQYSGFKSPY
Experimental: Cell line generation was performed in general according to established molecular cloning protocols. Specifically, RNA was extracted from human whole blood using the Qiagen RNeasy kit (Qiagen, CH) according to the manufacturer's instructions. Subsequently cDNA was made (Superscript II, Invitrogen AG, CH) and the human P2X7 gene (genbank ref. BC011913) was amplified with the following primers: [NT] and [NT] The amplified sequence was subsequently ligated into a pcDNA3.1 (+) NotI, NheI digested plasmid. […] Following a 24 h exposure to DNA, cells were trypsinized and re-seeded at low density in the presence of 250 μg Geneticin. Geneticin resistant cells were then selected during two consecutive rounds of cloning by serial limiting dilution with visual inspection. Individual clones were screened for P2X7 expression by applying ATP and recording the resultant uptake of YO-[…]. Specific cell clones were chosen based on RNA and protein expression. HEK cells stably expressing P2X7 were used to screen drugs using the YO-[…] assay. Cells were grown to confluency in adherent culture at 37° C. in a humidified 5% CO2 incubator (split 1/5 every 3-4 days with DMEM, 10% FCS, 1% Penicillin/Streptomycin, 250 μg/ml Geneticin). Adherent cells were detached by incubation with Trypsine (1 ml per 165 cm^2 dish) for 2 minutes, then washed off with 10 ml PBS (without Mg^2+ and Ca^2+), and resuspended in DMEM, 10% FCS, 1% Penicillin/Streptomycin, no Geneticin. 10'000 cells per well (48 hours before the assay) or 25'000 cells per well (Vi-cell XR (Beckman Coulter) (24 hours before the assay) in 50 μl full medium were seeded on 384-well black-wall, clear bottom plates, that were coated before with 10 μl per well Poly-L-Lysine, incubated for 30-60 minutes at 37° C. and washed once with PBS. Medium was removed from cells and 50 μl of assay buffer containing 0.5 μM YO-[…] was added into the wells. Solutions of antagonist compounds were prepared by serial dilutions of a 10 mM DMSO solution of the antagonist into PBS using a BioMek (Beckman Coulter). Each concentration was performed in duplicate. […] During this time period, four time points were taken. Each time point comprised the average of several measurements made within a few seconds. […] The FLIPR tetra was equipped with Molecular Devices Screen Works system control software to define and run experimental protocols. […] For IC50 measurements the maximum intensity is plotted against the concentration of compound to determine IC50 values.

| IC50 | Compound |
| --- | --- |
| 0.267 µM | CCCN(c1ccc(Cl)c(C(=O)NCC2(O)CCCCC2)c1)c1ccnc(Cl)n1 [Example 22, 2-Chloro-5-[(2-chloro-pyrimidin-4-yl)-propyl-amino]-N-(1-hydroxy-cyclohexylmethyl)-benzamide] |
| 0.018 µM | CCCN(c1ccc(Cl)c(C(=O)NCC2(O)CCCCC2)c1)c1cc[nH]c(=O)n1 [Example 23, 2-Chloro-N-(1-hydroxy-cyclohexylmethyl)-5-[(2-oxo-1,2-dihydro-pyrimidin-4-yl)-propyl-amino]-benzamide] |
| 0.236 µM | CC(C)N(c1ccc(Cl)c(C(=O)NCC2(O)CCCCC2)c1)c1ccnc(Cl)n1 [Example 24, 2-Chloro-5-[(2-chloro-pyrimidin-4-yl)-isopropyl-amino]-N-(1-hydroxy-cyclohexylmethyl)-benzamide] |
| 0.109 µM | CC(C)N(c1ccc(Cl)c(C(=O)NCC2(O)CCCCC2)c1)c1cc[nH]c(=O)n1 [Example 25, 2-Chloro-N-(1-hydroxy-cyclohexylmethyl)-5-[isopropyl-(2-oxo-1,2-dihydro-pyrimidin-4-yl)-amino]-benzamide] |
| 0.317 µM | CC(C)CN(c1ccc(Cl)c(C(=O)NCC2(O)CCCCC2)c1)c1ccnc(Cl)n1 [Example 26, 2-Chloro-5-[(2-chloro-pyrimidin-4-yl)-isobutyl-amino]-N-(1-hydroxy-cyclohexylmethyl)-benzamide] |
| 0.03 µM | CC(C)CN(c1ccc(Cl)c(C(=O)NCC2(O)CCCCC2)c1)c1cc[nH]c(=O)n1 [Example 27, 2-Chloro-N-(1-hydroxy-cyclohexylmethyl)-5-[isobutyl-(2-oxo-1,2-dihydro-pyrimidin-4-yl)-amino]-benzamide] |
| 0.353 µM | COc1nccc(N(CC(C)C)c2ccc(Cl)c(C(=O)NCC3(O)CCCCC3)c2)n1 [Example 28, 2-Chloro-N-(1-hydroxy-cyclohexylmethyl)-5-[isobutyl-(2-methoxy-pyrimidin-4-yl)-amino]-benzamide] |
| 0.456 µM | O=C(NCC1(O)CCCCC1)c1cc(N(Cc2ccccc2)c2ccnc(Cl)n2)ccc1Cl [Example 29, 5-[Benzyl-(2-chloro-pyrimidin-4-yl)-amino]-2-chloro-N-(1-hydroxy-cyclohexylmethyl)-benzamide] |
| 0.181 µM | O=C(NCC1(O)CCCCC1)c1cc(N(Cc2ccccc2)c2cc[nH]c(=O)n2)ccc1Cl [Example 30, 5-[Benzyl-(2-oxo-1,2-dihydro-pyrimidin-4-yl)-amino]-2-chloro-N-(1-hydroxy-cyclohexylmethyl)-benzamide] |
| 0.566 µM | COc1nccc(N(Cc2ccccc2)c2ccc(Cl)c(C(=O)NCC3(O)CCCCC3)c2)n1 [Example 31, 5-[Benzyl-(2-methoxy-pyrimidin-4-yl)-amino]-2-chloro-N-(1-hydroxy-cyclohexylmethyl)-benzamide] |
| 0.531 µM | COCCN(c1ccc(Cl)c(C(=O)NCC2(O)CCCCC2)c1)c1ccnc(Cl)n1 [Example 32, 2-Chloro-5-[(2-chloro-pyrimidin-4-yl)-(2-methoxy-ethyl)-amino]-N-(1-hydroxy-cyclohexylmethyl)-benzamide] |
| 0.183 µM | COCCN(c1ccc(Cl)c(C(=O)NCC2(O)CCCCC2)c1)c1cc[nH]c(=O)n1 [Example 33, 2-Chloro-N-(1-hydroxy-cyclohexylmethyl)-5-[(2-methoxy-ethyl)-(2-oxo-1,2-dihydro-pyrimidin-4-yl)-amino]-benzamide] |
| 0.86 µM | COCCN(c1ccc(Cl)c(C(=O)NCC2(O)CCCCC2)c1)c1ccnc(OC)n1 [Example 34, 2-Chloro-N-(1-hydroxy-cyclohexylmethyl)-5-[(2-methoxy-ethyl)-(2-methoxy-pyrimidin-4-yl)-amino]-benzamide] |
| 0.367 µM | O=C(NCC1(O)CCCCC1)c1cc(N(CC2CCCC2)c2ccnc(Cl)n2)ccc1Cl [Example 35, 2-Chloro-5-[(2-chloro-pyrimidin-4-yl)-cyclopentylmethyl-amino]-N-(1-hydroxy-cyclohexylmethyl)-benzamide] |
| 0.185 µM | O=C(NCC1(O)CCCCC1)c1cc(N(CC2CCCC2)c2cc[nH]c(=O)n2)ccc1Cl [Example 36, 2-Chloro-5-[cyclopentylmethyl-(2-oxo-1,2-dihydro-pyrimidin-4-yl)-amino]-N-(1-hydroxy-cyclohexylmethyl)-benzamide] |
| 0.764 µM | O=C(NCC1(O)CCCCC1)c1cc(N(CCOc2ccccc2)c2ccnc(Cl)n2)ccc1Cl [Example 38, 2-Chloro-5-[(2-chloro-pyrimidin-4-yl)-(2-phenoxy-ethyl)-amino]-N-(1-hydroxy-cyclohexylmethyl)-benzamide] |
| 0.378 µM | O=C(NCC1(O)CCCCC1)c1cc(N(CCOc2ccccc2)c2cc[nH]c(=O)n2)ccc1Cl [Example 39, 2-Chloro-N-(1-hydroxy-cyclohexylmethyl)-5-[(2-oxo-1,2-dihydro-pyrimidin-4-yl)-(2-phenoxy-ethyl)-amino]-benzamide] |
| 0.588 µM | COc1nccc(N(CCOc2ccccc2)c2ccc(Cl)c(C(=O)NCC3(O)CCCCC3)c2)n1 [Example 40, 2-Chloro-N-(1-hydroxy-cyclohexylmethyl)-5-[(2-methoxy-pyrimidin-4-yl)-(2-phenoxy-ethyl)-amino]-benzamide] |
| 0.384 µM | C[C@@H](NC(=O)c1cc(N(C)c2ccnc(Cl)n2)ccc1Cl)C1CCCCC1 [Example 41, 2-Chloro-5-[(2-chloro-pyrimidin-4-yl)-methyl-amino]-N—((R)-1-cyclohexyl-ethyl)-benzamide] |
| 0.038 µM | C[C@@H](NC(=O)c1cc(N(C)c2cc[nH]c(=O)n2)ccc1Cl)C1CCCCC1 [Example 42, 2-Chloro-N—((R)-1-cyclohexyl-ethyl)-5-[methyl-(2-oxo-1,2-dihydro-pyrimidin-4-yl)-amino]-benzamide] |
| 0.136 µM | CN(c1ccc(Cl)c(C(=O)N[C@H](CO)C2CCCCC2)c1)c1ccnc(Cl)n1 [Example 43, 2-Chloro-5-[(2-chloro-pyrimidin-4-yl)-methyl-amino]-N—((S)-1-cyclohexyl-2-hydroxy-ethyl)-benzamide] |
| 0.033 µM | CN(c1ccc(Cl)c(C(=O)N[C@H](CO)C2CCCCC2)c1)c1cc[nH]c(=O)n1 [Example 44, 2-Chloro-N—((S)-1-cyclohexyl-2-hydroxy-ethyl)-5-[methyl-(2-oxo-1,2-dihydro-pyrimidin-4-yl)-amino]-benzamide] |
| 0.089 µM | CN(c1ccc(Cl)c(C(=O)NCC2(O)CCCCCC2)c1)c1ccnc(Cl)n1 [Example 45, 2-Chloro-5-[(2-chloro-pyrimidin-4-yl)-methyl-amino]-N-(1-hydroxy-cycloheptylmethyl)-benzamide] |
| 0.021 µM | CN(c1ccc(Cl)c(C(=O)NCC2(O)CCCCCC2)c1)c1cc[nH]c(=O)n1 [Example 46, 2-Chloro-N-(1-hydroxy-cycloheptylmethyl)-5-[methyl-(2-oxo-1,2-dihydro-pyrimidin-4-yl)-amino]-benzamide] |
| 0.116 µM | CN(c1ccc(Cl)c(C(=O)NCC2(O)CCCCCCC2)c1)c1ccnc(Cl)n1 [Example 47, 2-Chloro-5-[(2-chloro-pyrimidin-4-yl)-methyl-amino]-N-(1-hydroxy-cyclooctylmethyl)-benzamide] |
| 0.015 µM | CN(c1ccc(Cl)c(C(=O)NCC2(O)CCCCCCC2)c1)c1ccnc(=O)[nH]1 [Example 48, 2-Chloro-N-(1-hydroxy-cyclooctylmethyl)-5-[methyl-(2-oxo-2,3-dihydro-pyrimidin-4-yl)-amino]-benzamide] |
| 1.12 µM | CN(c1ccc(Cl)c(C(=O)NCC2(O)CCCC2)c1)c1ccnc(Cl)n1 [Example 49, 2-Chloro-5-[(2-chloro-pyrimidin-4-yl)-methyl-amino]-N-(1-hydroxy-cyclopentylmethyl)-benzamide] |
